Where two headings read alike, the source gives them in different places.
Experiments:
[1] = tested on: platinum-sensitive recurrent epithelial ovarian, fallopian tube, or primary peritoneal cancer; conditions: niraparib vs placebo
Excerpt: All patients had received at least two prior platinum-containing regimens and were in response (complete or partial) to their most recent platinum-based regimen. Eligible patients were assigned to one of two cohorts based on the results of a germline BRCA mutation test. […] Randomization occurred within 8 weeks of the last dose of the most recent platinum-containing regimen. […] Clinic visits occurred each cycle (4 weeks±3 days). […] Prior to unblinding of the study, tumors of patients randomized to the non-gBRCAmut cohort were tested for the presence of homologous recombination deficiency (HRD) using the Myriad myChoice® HRD test, which evaluates three independent biomarkers of tumor genome instability: loss of heterozygosity, telomeric allelic imbalance, and large-scale state transitions. Tumors with homologous recombination deficiencies and those with somatic BRCA mutations were defined as HRD positive (HRDpos). The primary efficacy analysis for PFS was prospectively defined and assessed for the gBRCAmut cohort. The primary efficacy analysis for PFS was prospectively defined and assessed for the non-gBRCAmut cohort with a hierarchical testing schema. In the first step, PFS was assessed in the group of patients with HRDpos tumors and if significant, PFS was assessed in the overall non-gBRCAmut cohort. Secondary efficacy endpoints included chemotherapy-free interval (CFI), time to first subsequent therapy (TFST), PFS after the first subsequent therapy (PFS2), time to second subsequent therapy (TSST) and OS (overall survival).

tumor models [2] = assay: animal or person; conditions: read-out: PARP inhibition
tumor models [3] = tested on: tumor models
[4] = drug substance, crystalline solid

| Structure (SMILES) | CFI HR ([1]; gBRCAmut cohort) | TFST HR ([1]; gBRCAmut cohort) | CFI HR ([1]; non-gBRCAmut cohort) | TFST HR ([1]; non-gBRCAmut cohort) | inhibition at 50 mg/kg (tumor models [2]) | tumor regression (tumor models [3]; 50 mg/kg, daily dosing) | tumor regression (tumor models [3]; dose of 75 mg/kg, same model) | tumor regression (tumor models [3]; dosing switched from 75 mg/kg to 50 mg/kg) | hygroscopicity [4] |
| --- | --- | --- | --- | --- | --- | --- | --- | --- | --- |
| NC(=O)c1cccc2cn(-c3ccc([C@@H]4CCCNC4)cc3)nc12 [Niraparib] | 0.26 | 0.31 | 0.50 | 0.55 | > 90% | tumor regression | did not result in tumor regression | tumor regression was achieved | – |
| Cc1ccc(S(=O)(=O)O)cc1.NC(=O)c1cccc2cn(-c3ccc([C@@H]4CCCNC4)cc3)nc12 [Niraparib tosylate monohydrate, 2-{4-[(3S)-piperidin-3-yl]phenyl}-2H-indazole 7-carboxamide 4-methylbenzenesulfonate hydrate (1:1:1)] | – | – | – | – | – | – | – | – | non-hygroscopic |

Reference: patent US11730725B2 (Tesaro, Inc., priority 2017, dated 2023)
